One substance from US20260042801A1, “COMPOSITIONS AND METHODS FOR DYE-BOUND CYCLIZED PEPTIDES FOR MEDICAL USE” (The Texas A&M University System, priority 2022, published 2026) can be followed below.

Assay [1] relates to primary adult cortical neurons. Kind of assay: Primary adult cortical neuron culture: survival and neurite outgrowth. It is filed as cell-based, mouse. Particulars: adult neurons from 6-month-old mice, 2 days with 5c(i). As to the method:
FIGS. 3A-3C: 5c(i) augments neuritogenesis and neuron survival. Primary adult cortical neurons from 6-month-old female mice were treated with 5c(i) for 2 days. 5c(i) was added at the time of cell plating. Cells were fixed 2 days after cell plating. 3A) Graph represents mean±SEM of percent change in neurite outgrowth per cell and number of surviving neurons. Representative images of 3B) Vehicle and 3C) 5000 nM 5c(i) treated groups. Linear regression was conducted to determine statistical significance. […] Scale bar=50 μm.
For all cell culture experiments, primary neural cells were extracted from the cortices of […] mice. The extraction, purification, and separation of neurons and glia was conducted as previously before^58 covered under patent application WO2022266431, incorporated by reference herein in its entirety. Briefly, after euthanization of mice, the brains were microdissected and placed in papain filled GENTLEMACS™ (tissue dissector) C Tubes followed by cell dissociation using the GENTLEMACS™ (tissue dissector) Octo Dissociator with Heaters with heating cuffs using the GENTLEMACS™ (tissue dissector) Program 37C_ABDK_01 protocol. After protocol completion, the contents were strained through a 70 μm cell strainer, debris and red blood cells were removed, and the remaining solution was labeled with glia specific antibodies. […]

The test system of assay [2] is severe T8 contusion/compression SCI. Kind of assay: Preclinical SCI model: liver Masson's trichrome collagen deposition. It is filed as in vivo, mouse. Particulars: 7 weeks post injury. As to the method:
N=6-8. […] Student's T-test.
Mice were sacrificed 7 weeks after injury by a lethal dose of Fatal plus (pentobarbital), then, transcardial perfusion was performed with PBS-Heparin (10,000 unit/L, 20 mL, 5 mL/min) followed by a 4% paraformaldehyde fixative solution (30 mL/mouse, at 5 mL/min). Right after perfusion, tissues were immersed in 4% PFA for 24 hours, transferred to 15% sucrose for 24 hours, then transferred to 30% sucrose for 24 hours before being embedded. Subsequently, the spinal cords (at injury site±1 mm) were cut into 25 μm-thick transverse sections using a freezing microtome (THERMO FISHER SCIENTIFIC® (laboratory reagents), Microm HM550). […] The images were acquired using VS120 Virtual Slide Microscope (Olympus) and Axio Observer 7 (ZEISS® (optical products)) and analyzed with QuPath 0.4.3. […] The lesion size was measured by tracing the glial scar border labeled with GFAP surrounding a DAPI^+ inner region. Cavity size was measured by measuring the region within the spinal cord without any visible nuclei yet surrounded by GFAP labeled glial scar. Three spinal cord sections per animal were imaged and analyzed. […] Images were quantified using QuPath software. […] Collagen accumulation was quantified using automated QuPath software to determine the extent of fibrosis.

Regarding “C-DIRG-C BODIPY® (fluorescent dye) [5c(i)]”, in assay [1], the “increase in neurite outgrowth” value came to 42% and the “increase in neuron survival” value is reported as 94%. In addition, in assay [2], the liver collagen deposition entry is “alleviated”.
